The values that follow come from patent US20110034526A1, “Benzimidazole Compounds” (Wyeth LLC, priority 2007, published 2011).

Experiment [1] deals with T1, human LXRβ (Homo sapiens, UniProt P55055).
T1 construct: biotin (biotinylated); made in house; host or cells: E. coli (crude extract)
T1 sequence (P55055 1-460): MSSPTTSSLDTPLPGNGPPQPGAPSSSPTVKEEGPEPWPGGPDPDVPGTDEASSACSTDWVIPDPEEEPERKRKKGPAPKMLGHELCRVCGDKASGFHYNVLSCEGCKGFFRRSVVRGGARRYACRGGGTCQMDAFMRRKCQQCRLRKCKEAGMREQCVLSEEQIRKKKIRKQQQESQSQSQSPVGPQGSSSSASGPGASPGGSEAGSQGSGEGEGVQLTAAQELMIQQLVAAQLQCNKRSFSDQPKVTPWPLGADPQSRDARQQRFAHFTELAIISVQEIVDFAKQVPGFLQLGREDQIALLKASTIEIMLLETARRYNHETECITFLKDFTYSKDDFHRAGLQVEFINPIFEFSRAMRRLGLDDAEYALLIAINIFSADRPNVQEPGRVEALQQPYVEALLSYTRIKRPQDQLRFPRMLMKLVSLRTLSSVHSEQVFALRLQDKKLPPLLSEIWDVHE
The experiment can be described thus: Ligand-binding test procedure for human LXRβ (3H T0901317 tracer, flash plates). On the procedure: Receptor source: E. coli extracted from cells expressing biotinylated hLXRβ. Extract was made in a similar buffer as above, but with 50 mM TRIS.
Washed streptavidin and coated flash plates with wash buffer. Diluted receptor extract to give Bmax ˜4000 cpm and add to the wells. Wrapped the plates in aluminum foil and stored them at +4° C. overnight.
(§1) Made a dilution series in DMSO of the test ligands. Made a 5 nM solution of the radioactive tracer in buffer. Mixed 250 μl diluted tracer with 5 μl of the test ligand from each concentration of the dilution series. Washed the receptor-coated flash plates. Added 200 μl per well of the ligand/radiolabel mixture to the receptor-coated flash plates. Wrapped the plates in aluminum foil and incubate at +4° C. over night.
Aspirated wells, and washed the flashed plates. Sealed the plate. Measured the remaining radioactivity in the plate.

Experiment [2] deals with T2, human LXRα (Homo sapiens, UniProt Q13133).
T2 construct: biotin (biotinylated); made in house; host or cells: E. coli (crude extract)
T2 sequence (Q13133 1-447): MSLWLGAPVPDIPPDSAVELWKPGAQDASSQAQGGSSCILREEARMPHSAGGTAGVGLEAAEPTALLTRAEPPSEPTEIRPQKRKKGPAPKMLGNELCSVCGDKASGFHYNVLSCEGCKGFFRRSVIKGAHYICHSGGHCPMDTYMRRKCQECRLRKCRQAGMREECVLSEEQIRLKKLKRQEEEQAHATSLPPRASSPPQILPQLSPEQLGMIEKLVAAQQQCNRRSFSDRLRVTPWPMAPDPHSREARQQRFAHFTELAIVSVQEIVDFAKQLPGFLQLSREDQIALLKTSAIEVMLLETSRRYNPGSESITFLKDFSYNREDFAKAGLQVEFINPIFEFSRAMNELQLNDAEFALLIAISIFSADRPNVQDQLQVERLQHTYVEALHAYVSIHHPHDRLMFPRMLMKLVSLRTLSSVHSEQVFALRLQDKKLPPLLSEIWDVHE
Description: Ligand-binding test procedure for human LXRα (3H T0901317 tracer, flash plates). To be noted: biotinylated hLXRα, tracer 3H T0901317. On the procedure: Receptor source: E. coli extract from cells expressing biotinylated hLXRcc. Extract was made in a similar buffer as above, but with 50 mM TRIS.
Washed streptavidin and coated flash plates with wash buffer. Diluted receptor extract to give Bmax ˜4000 cpm and add to the wells. Wrapped the plates in aluminum foil and stored them at +4° C. over night.
as §1
Aspirated wells, and wash the flashed plates. Sealed the plate. Measured the remaining radioactivity in the plate.

Molecules are shown by their SMILES. pIC50: −log10 of the molar value. A value given as a limit tells only on which side of the number the result lay.

As for `Cc1nc2c(C(F)(F)F)cccc2n1-c1cccc(Oc2cccc(S(=O)(=O)CCC(C)(C)O)c2)c1` [Example 11, 2-methyl-4-[(3-{3-[2-methyl-4-(trifluoromethyl)-1H-benzimidazol-1-yl]phenoxy}-phenyl)sulfonyl]butan-2-ol], the pIC50 – broadly, the negative decadic logarithm of the IC50, by convention in mol/L – in experiment [1] is 6.54; in experiment [2], 5.15.
The like results for `Cc1nc2c(C(F)(F)F)cccc2n1-c1cccc(Oc2ccccc2S(C)(=O)=O)c1` [Example 12, 2-methyl-1-{3-[2-(methylsulfonyl)phenoxy]phenyl}-4-(trifluoromethyl)-1H-benzimidazole] were, in that order, less than 6.00 and less than 6.00.
As to `Cc1nc2c(C(F)(F)F)cccc2n1-c1cccc(Oc2ccccc2S(=O)(=O)CCCO)c1` [Example 13, 3-[(2-{3-[2-methyl-4-(trifluoromethyl)-1H-benzimidazol-1-yl]phenoxy}phenyl)sulfonyl]propan-1-ol], the pIC50 in experiment [1] is 5.72; in experiment [2], less than 6.00.
For the molecule `Cc1nc2c(C(F)(F)F)cccc2n1-c1cccc(Oc2ccc(S(C)(=O)=O)cc2)c1` [Example 14, 2-methyl-1-{3-[4-(methylsulfonyl)phenoxy]phenyl}-4-(trifluoromethyl)-1H-benzimidazole], the pIC50 in experiment [1] is 6.36; in experiment [2] it was 5.53.
Take `Cc1nc2c(C(F)(F)F)cccc2n1-c1cccc(Oc2ccc(S(=O)(=O)CCCO)cc2)c1` [Example 15, 3-[(4-{3-[2-methyl-4-(trifluoromethyl)-1H-benzimidazol-1-yl]phenoxy}phenyl)sulfonyl]propan-1-ol]: the pIC50 in experiment [1] is 6.02; in experiment [2] it was 5.32.
For `CCCS(=O)(=O)c1cccc(Oc2cccc(-n3c(C)nc4c(Cl)cccc43)c2)c1` [Example 43, 4-chloro-2-methyl-1-{3-[3-(propylsulfonyl)phenoxy]phenyl}-1H-benzimidazole], the pIC50 in experiment [1] was 8.43; in experiment [2], 7.85.
The like results for `Cc1nc2c(Cl)cccc2n1-c1cccc(Oc2cc(F)cc(S(C)(=O)=O)c2)c1` [Example 44, 4-chloro-1-{3-[3-fluoro-5-(methylsulfonyl)phenoxy]phenyl}-2-methyl-1H-benzimidazole] were, in that order, 8.46 and 7.92.
Regarding `CCS(=O)(=O)c1cc(F)cc(Oc2cccc(-n3c(C)nc4c(Cl)cccc43)c2)c1` [Example 45, 4-chloro-1-{3-[3-(ethylsulfonyl)-5-fluorophenoxy]phenyl}-2-methyl-1H-benzimidazole], the pIC50 was 8.18 in experiment [1] and 7.51 in experiment [2].
`Cc1nc2c(Cl)cccc2n1-c1cccc(Oc2cc(Cl)cc(S(C)(=O)=O)c2)c1` [Example 46, 4-chloro-1-{3-[3-chloro-5-(methylsulfonyl)phenoxy]phenyl}-2-methyl-1H-benzimidazole]: the pIC50 in experiment [1] was 8.44; in experiment [2] it was 7.44.
The like results for `CCS(=O)(=O)c1ccc(Oc2cccc(-n3c(C)nc4c(Cl)cccc43)c2)cc1` [Example 49, 4-chloro-1-{3-[4-(ethylsulfonyl)phenoxy]phenyl}-2-methyl-1H-benzimidazole] were, in that order, 7.77 and 7.07.
For `Cc1nc2c(Cl)cccc2n1-c1cccc(Oc2ccccc2S(C)(=O)=O)c1` [Example 50, 4-chloro-2-methyl-1-{3-[2-(methylsulfonyl)phenoxy]phenyl}-1H-benzimidazole], the pIC50 in experiment [1] was 6.77; in experiment [2] it was 6.13.
`Cc1nc2c(Cl)cccc2n1-c1cccc(Oc2cc(S(C)(=O)=O)ccc2Br)c1` [Example 51, 1-{3-[2-bromo-5-(methylsulfonyl)phenoxy]phenyl}-4-chloro-2-methyl-1H-benzimidazole]: the results for the pIC50 in experiment [1] and in experiment [2] were 7.00 and 6.19, respectively.
Consider `Cc1nc2c(Cl)cccc2n1-c1cccc(Oc2ccc(S(C)(=O)=O)cc2F)c1` [Example 52, 4-chloro-1-{3-[2-fluoro-4-(methylsulfonyl)phenoxy]phenyl}-2-methyl-1H-benzimidazole], for which the pIC50 in experiment [1] was 6.45; in experiment [2], 5.52.
Turning to `Cc1nc2c(Cl)cccc2n1-c1cccc(Oc2cccc(S(=O)(=O)CCC(C)C)c2)c1` [Example 53], the pIC50 in experiment [1] is 7.70; in experiment [2] it was 6.59.
For `CCCS(=O)(=O)c1cccc(Oc2ccc(Cl)c(-n3c(C)nc4c(Cl)cccc43)c2)c1` [Example 56, 4-chloro-1-{2-chloro-5-[3-(propylsulfonyl)phenoxy]phenyl}-2-methyl-1H-benzimidazole], the pIC50 in experiment [1] is 6.79; in experiment [2], 5.60.
`CCS(=O)(=O)c1cc(F)cc(Oc2ccc(Cl)c(-n3c(C)nc4c(Cl)cccc43)c2)c1` [Example 59, 4-chloro-1-{2-chloro-5-[3-(ethylsulfonyl)-5-fluorophenoxy]phenyl}-2-methyl-1H-benzimidazole]: the figures for the pIC50 in experiment [1] and in experiment [2] were 6.36 and 5.70, respectively.
Regarding `Cc1nc2c(Cl)cccc2n1-c1cc(Oc2ccc(S(C)(=O)=O)cc2)ccc1Cl` [Example 61, 4-chloro-1-{2-chloro-5-[4-(methylsulfonyl)phenoxy]phenyl}-2-methyl-1H-benzimidazole], the pIC50 in experiment [1] was 6.45; in experiment [2], 5.52.
Regarding `CCS(=O)(=O)c1ccc(Oc2ccc(Cl)c(-n3c(C)nc4c(Cl)cccc43)c2)cc1` [Example 62, 4-chloro-1-{2-chloro-5-[4-(ethylsulfonyl)phenoxy]phenyl}-2-methyl-1H-benzimidazole], the pIC50 is 7.19 in experiment [1] and 6.09 in experiment [2].
`Cc1nc2c(Cl)cccc2n1-c1cc(Oc2ccccc2S(C)(=O)=O)ccc1Cl` [Example 63, 4-chloro-1-{2-chloro-5-[2-(methylsulfonyl)phenoxy]phenyl}-2-methyl-1H-benzimidazole]: the pIC50 in experiment [1] is 6.51; in experiment [2] it was 5.60.
The like results for `Cc1nc2c(C(F)(F)F)cccc2n1-c1ccc(Oc2cccc(S(C)(=O)=O)c2)cc1` [Example 64, 2-methyl-1-{4-[3-(methylsulfonyl)phenoxy]phenyl}-4-(trifluoromethyl)-1H-benzimidazole] were, in that order, 8.77 and 8.08.
For `CCc1nc2c(C(F)(F)F)cccc2n1-c1ccc(Oc2cccc(S(=O)(=O)CC)c2)cc1` [Example 68, 2-ethyl-1-{4-[3-(ethylsulfonyl)phenoxy]phenyl}-4-(trifluoromethyl)-1H-benzimidazole] the same measures were 5.91 and less than 6.00.
In the case of `CS(=O)(=O)c1cccc(Oc2ccc(-n3c(C(F)(F)F)nc4c(C(F)(F)F)cccc43)cc2)c1` [Example 70, 1-{4-[3-(methylsulfonyl)phenoxy]phenyl}-2,4-bis(trifluoromethyl)-1H-benzimidazole], the pIC50 was 6.56 in experiment [1] and 5.35 in experiment [2].
For `CS(=O)(=O)c1cc(F)cc(Oc2ccc(-n3c(C(F)(F)F)nc4c(C(F)(F)F)cccc43)cc2)c1` [Example 72, 1-{4-[3-fluoro-5-(methylsulfonyl)phenoxy]phenyl}-2,4-bis(trifluoromethyl)-1H-benzimidazole] the same measures were 6.29 and 5.33.
`CCS(=O)(=O)c1cccc(Oc2cccc(-n3c(C(F)(F)F)nc4c(C(F)(F)F)cccc43)c2)c1` [Example 77, 1-{3-[3-(ethylsulfonyl)phenoxy]phenyl}-2,4-bis(trifluoromethyl)-1H-benzimidazole]: the pIC50 was 6.70 in experiment [1] and 5.60 in experiment [2].
For `CC(C)S(=O)(=O)c1cccc(Oc2cccc(-n3c(C(F)(F)F)nc4c(C(F)(F)F)cccc43)c2)c1` [Example 78, 1-{3-[3-(isopropylsulfonyl)phenoxy]phenyl}-2,4-bis(trifluoromethyl)-1H-benzimidazole] the same measures were 7.04 and 5.86.
On to `CS(=O)(=O)c1cccc(COc2ccc(Cl)c(-n3cnc4c(C(F)(F)F)cccc43)c2)c1` [Example 84, 1-(2-chloro-5-{[3-(methylsulfonyl)benzyl]oxy}phenyl)-4-(trifluoromethyl)-1H-benzimidazole], for which the pIC50 is 6.96 in experiment [1] and 5.82 in experiment [2].
